Data on 4 molecules can be found in US20140377219A1, “HIV INHIBITORS” (New york Blood Center, Inc., priority 2011, published 2014).

The subject of data set [1] is primary HIV-1 isolate 92US657 (subtype B, R5). The experiment in a line: Neutralization assay in PBMC (p24 ELISA). As to conditions: read-out: IC50 (μM) ± S.D., inhibitory activity on infection; 92US657, subtype B, PBMC, R5, primary isolate.
Protocol: (§1) PBMCs were isolated from the blood of healthy donors at the New York Blood Center by standard density-gradient centrifugation using Histopaque-1077 (Sigma-Aldrich). The cells were cultured at 37° C. for 2 h. Non-adherent cells were collected and resuspended at 5×10^6 cells/ml in RPMI-1640 medium containing 10% (v/v) fetal bovine serum, 5 μg/ml of phytohemagglutinin, and 100 U/ml of IL-2 (Sigma-Aldrich), followed by incubation at 37° C. for three days.
The subject of data set [2] is Panel C env Du172, clone 17 (SVPC4). It is filed as cell-based. The conditions noted are these: TZM-bl, read-out: IC50 (μM) ± S.D., antiviral activity against HIV-1 envelope pseudoviruses.
Data set [3] concerns laboratory-adapted HIV-1 IIIB strain.
Protocol: In brief, 1×10^4 MT-2 cells were infected with HIV-1 at 100 TCID50 (50% tissue culture infective dose) (0.01MOI) in 200 μl medium in the presence or absence of small molecules at graded concentrations and incubated overnight. The culture supernatants were then removed and replaced with fresh media. On the fourth day post-infection, 100 μl of culture supernatants were collected from each well, mixed with equal volume of 5% Triton X-100 and tested for p24 antigen by sandwich-ELISA. The percent inhibition of p24 production and IC50 values were calculated by the GraphPad Prism software (GraphPad Software Inc.).
In data set [4] the test system is Panel B env pCAAN5342 clone A2 (SVPB19). It is filed as cell-based. The conditions noted are these: TZM-bl, read-out: IC50 (μM) ± S.D., antiviral activity against HIV-1 envelope pseudoviruses.
Data set [5] relates to Panel C env ZM-109F.PB4, SVPC13. The data set is classed as cell-based. As to conditions: TZM-bl, read-out: IC50 (μM) ± S.D., antiviral activity against HIV-1 envelope pseudoviruses.
In data set [6] the test system is AZT-resistant (AZT-R) HIV-1 strain. The experiment in a line: Multi-cycle neutralization assay in MT-2 cells. As to conditions: read-out: IC50 (μM) ± S.D., inhibitory activity on infection; AZT-R, subtype B, MT-2, X4, RT-resistant isolate.
Data set [7] concerns Panel B env SC422661, clone B (SVPB8). The data set is classed as cell-based. As to conditions: TZM-bl, read-out: IC50 (μM) ± S.D., antiviral activity against HIV-1 envelope pseudoviruses.
For data set [8], the system named is HIV-1 RF. The experiment in a line: Multi-cycle neutralization assay in MT-2 cells. The conditions noted are these: read-out: IC50 (μM) ± S.D., inhibitory activity on infection; RF, subtype B, MT-2, R5X4, laboratory strain.
In data set [9] the test system is primary HIV-1 isolate 93IN101 (subtype C, R5). The experiment in a line: Neutralization assay in PBMC (p24 ELISA). As to conditions: read-out: IC50 (μM) ± S.D., inhibitory activity on infection; 93IN101, subtype C, PBMC, R5, primary isolate.
Protocol: (§2) The inhibitory activity of small molecules on infection by primary HIV-1 isolates was determined. PBMCs were isolated from the blood of healthy donors at the New York Blood Center by standard density-gradient centrifugation using Histopaque-1077 (Sigma-Aldrich). The cells were cultured at 37° C. for 2 h. Non-adherent cells were collected and resuspended at 5×10^6 cells/ml in RPMI-1640 medium containing 10% (v/v) fetal bovine serum, 5 μg/ml of phytohemagglutinin, and 100 U/ml of IL-2 (Sigma-Aldrich), followed by incubation at 37° C. for three days.
The subject of data set [10] is Panel C env ZM-214M.PL15, SVPC7. It is filed as cell-based. The conditions noted are these: TZM-bl, read-out: IC50 (μM) ± S.D., antiviral activity against HIV-1 envelope pseudoviruses.
The test system of data set [11] is HIV-1 SF2. The experiment in a line: Multi-cycle neutralization assay in MT-2 cells. As to conditions: read-out: IC50 (μM) ± S.D., inhibitory activity on infection; SF2, subtype B, MT-2, R5X4, laboratory strain.
Data set [12] relates to Panel C env ZM-135M.PL10a, SVPC15. The data set is classed as cell-based. The conditions noted are these: TZM-bl, read-out: IC50 (μM) ± S.D., antiviral activity against HIV-1 envelope pseudoviruses.
For data set [13], the system named is primary HIV-1 isolate BCF02 (Group 0, R5). The experiment in a line: Neutralization assay in PBMC (p24 ELISA). As to conditions: read-out: IC50 (μM) ± S.D., inhibitory activity on infection; BCF02, Group 0, PBMC, R5, primary isolate.
Protocol: as §2
The test system of data set [14] is primary HIV-1 isolate 93TH060 (subtype E, R5). The experiment in a line: Neutralization assay in PBMC (p24 ELISA). The conditions noted are these: read-out: IC50 (μM) ± S.D., inhibitory activity on infection; 93TH060, subtype E, PBMC, R5, primary isolate.
Protocol: as §2
Data set [15] concerns primary HIV-1 isolate RU570 (clade G, R5). Kind of data set: Neutralization assay in PBMC (p24 ELISA). The conditions noted are these: read-out: IC50 (μM) ± S.D., inhibitory activity on infection; RU570, subtype G, PBMC, R5, primary isolate.
Protocol: as §1
Data set [16] has as its system Panel C env ZM-53M.PB12, SVPC11. It is filed as cell-based. The conditions noted are these: TZM-bl, read-out: IC50 (μM) ± S.D., antiviral activity against HIV-1 envelope pseudoviruses.
Data set [17] relates to Panel C env ZM-197M.PB7, SVPC6. The data set is classed as cell-based. As to conditions: TZM-bl, read-out: IC50 (μM) ± S.D., antiviral activity against HIV-1 envelope pseudoviruses.
Data set [18] has as its system MT-2 cells. The experiment in a line: Cytotoxicity in MT-2 cells (XTT). The data set is classed as cell-based. The essentials: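 XTT viability read-out: MT-2 cells (10^5 cells/ml) incubated with graded compound concentrations four days at 37° C; PBMC at 5×10^5 cells/ml, measured after seven days. CC50 derived from percentage cytotoxicity.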
In data set [19] the test system is HIV-1 RF/L-323-12-3 (protease resistant isolate). Kind of data set: Multi-cycle neutralization assay in MT-2 cells. The conditions noted are these: read-out: IC50 (μM) ± S.D., inhibitory activity on infection; HIV-1 RF/L-323-12-3, subtype B, MT-2, X4, protease resistant isolate.
Data set [20] relates to primary HIV-1 isolate 92UG031 (subtype A, R5). The experiment in a line: Neutralization assay in PBMC (p24 ELISA). As to conditions: read-out: IC50 (μM) ± S.D., inhibitory activity on infection; 92UG031, subtype A, PBMC, R5, primary isolate.
Protocol: as §2
For data set [21], the system named is TZM-bl cells. The experiment in a line: Cytotoxicity in TZM-bl cells (XTT). The data set is classed as cell-based. In a few lines: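 TZM-bl cells (10^5/ml) combined with equal volumes of compound at graded concentrations and incubated 3 days at 37° C. Viability measured colorimetrically by XTT tetrazolium dye reduction.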
Data set [22] relates to primary HIV-1 isolate 93MW959 (clade C, R5). The experiment in a line: Neutralization assay in PBMC (p24 ELISA). The conditions noted are these: read-out: IC50 (μM) ± S.D., inhibitory activity on infection, 93MW959, subtype C.
Protocol: as §2
Setting [23] is: read-out: IC50 (μM) ± S.D., inhibitory activity on infection, IIIB, subtype B, MT-2, X4, laboratory strain.
The mark [24] stands for this setting: read-out: MT-2 Cells IC50 (μM ± SD), multi-cycle assay, MT-2 cells, HIV-1 IIIB.
Setting [25] is: MT-2 cells, XTT, four days, read-out: MT-2 Cells CC50.
Where [26] appears, read: at the dose given as CC50 bound.
Setting [27] is: TZM-bl cells, XTT, 3 days, read-out: TZM-bl cells CC50 (μM ± SD).

Read-outs that look alike come from different tables or passages of the source.

Take `Cc1nc(C(NC(=O)C(=O)Nc2ccc(Cl)cc2)C2CCCCN2)sc1CO.Cl` (stereo not drawn) [Compound 6, N^1-(4-chlorophenyl)-N^2-((5-(hydroxymethyl)-4-methylthiazol-2-yl)(piperidin-2-yl)methyl)oxalamide.HCl]: the concentration for half-maximal inhibition (IC50) in [1] came out at 8.6 ± 0.9 µM; in data set [2], 3 ± 0.38 µM; in data set [3] (setting [23]), 4.7 ± 0.6 µM; in data set [3] (setting [24]), 4.7 ± 0.6 µM; in data set [4] it was 2.3 ± 0.3 µM; in data set [5], 1.2 ± 0.2 µM. Further, the IC50 in data set [6] is 4.4 ± 1.1 µM; in data set [7] it was 2.3 ± 0.2 µM; in data set [8] it was 9.6 ± 0.8 µM; in [9], over 87 µM; in [10] it was over 21 µM; in [11] it was 5.7 ± 0.9 µM. The IC50 is 0.73 ± 0.13 µM in [12]; about 87 µM in data set [13]; 7.2 ± 0.6 µM in data set [14]; 8.5 ± 0.8 µM in [15]; 2.4 ± 0.2 µM in data set [16]; over 21 µM in data set [17]. The IC50 was 14.7 ± 2.3 µM in [19], 9.3 ± 0.7 µM in data set [20] and over 43.5 µM in data set [22]. For the same molecule, the “% toxicity at that dose (number in parenthesis), MT-2 cells” value in data set [18] turned out to be 40%. Moreover, the CC50 in [18] is over 108 µM; in [21], over 22 µM. For the same molecule, the “% toxicity at that dose (number in parenthesis), TZM-bl cells” value (shortened to “% toxicity at that dose … TZM-bl cells”) in [21] was determined as 10%.

With `Cc1ccc(NC(=O)C(=O)NC(c2nc(C)c(CO)s2)C2CCCCN2)cc1F.Cl` (stereo not drawn) [Compound 28, N^1-(3-fluoro-4-methylphenyl)-N^2-((5-(hydroxymethyl)-4-methylthiazol-2-yl)(piperidin-2-yl)methyl)oxalamide.HCl], the IC50 in [1] was 12.3 ± 1.3 µM; in data set [3] (setting [23]) it was 3.7 ± 0.7 µM; in data set [3] (setting [24]), 5.3 ± 0.5 µM; in data set [4] it was 1.5 ± 0.1 µM; in data set [5] it was over 42 µM; in data set [6] it was 5.5 ± 0.7 µM. For the same molecule, the IC50 in data set [7] is 2.5 ± 0.3 µM; in data set [8] it was 11 ± 0.6 µM; in [9], over 85 µM; in [10] it was over 42 µM; in [11] it was 38.7 ± 4.5 µM; in data set [13], over 85 µM. Also, the IC50 in [14] is 9.9 ± 1.8 µM; in [15], 15.7 ± 0.2 µM; in data set [16], over 42 µM; in data set [17] it was over 42 µM; in data set [19], 4.8 ± 0.9 µM; in data set [20] it was 13.4 ± 1.2 µM. In addition, in data set [22], the IC50 is over 42.5 µM. Also, the CC50 in data set [18] (MT-2 cells, XTT, four days, listed as NBD-11008, read-out: MT-2 Cells CC50) was about 85 µM; in data set [18] (setting [25]) it was over 88 µM; in [21] (setting [27]), over 88 µM. Moreover, in data set [18] (setting [26]), the “% toxicity at that dose (number in parenthesis), MT-2 cells” value was found to be 30%. The “% toxicity at that dose … TZM-bl cells” value in [21] (setting [26]) worked out at 0%.

Regarding `Cc1nc(C(NC(=O)C(=O)Nc2ccc(Cl)c(F)c2)C2CCCCN2)sc1CCO.Cl` (stereo not drawn) [Compound 39, N^1-(4-chloro-3-fluorophenyl)-N^2-((5-(2-hydroxyethyl)-4-methylthiazol-2-yl)(piperidin-2-yl)methyl)oxalamide.HCl], the IC50 in [1] is 7.1 ± 0.9 µM; in [2] it was 5.3 ± 0.2 µM; in data set [3] (setting [23]) it was 3.5 ± 0.9 µM; in [3] (setting [24]), 3.5 ± 0.9 µM; in data set [4], 0.8 ± 0.3 µM; in data set [5] it was 3 ± 0.1 µM. Besides, the IC50 in data set [6] was 6.8 ± 0.6 µM; in [7], 1.3 ± 0.1 µM; in data set [8] it was 11.8 ± 1.2 µM; in data set [9], about 81.5 µM; in data set [10] it was 2.9 ± 0.4 µM; in data set [11], 15.8 ± 1.7 µM. Besides, the IC50 in [12] worked out at 0.61 ± 0.1 µM; in data set [13], 65.1 ± 3.5 µM; in [14], 13.7 ± 0.9 µM; in [15], 10.7 ± 0.5 µM; in data set [17], 2.3 ± 0.2 µM; in [19] it was 6.9 ± 1 µM. Moreover, in [20], the half-maximal inhibitory concentration (IC50) was 12.9 ± 1.5 µM. Further, the CC50 in data set [21] was about 61 µM.

On to `CC1(C)CC(NC(=O)C(=O)Nc2ccc(Cl)cc2)CC(C)(C)N1` [NBD-556, reference compound], for which the IC50 amounted to 48 ± 1.65 µM in [1]; 4.2 ± 0.23 µM in data set [2]; 6.5 ± 0.1 µM in data set [3] (setting [23]); 8 ± 0.2 µM in data set [3] (setting [24]); 2.4 ± 0.3 µM in [4]; 10.4 ± 3.5 µM in data set [5]. The IC50 is 58 ± 14.3 µM in data set [6]; 18.7 ± 1.3 µM in [8]; 6.5 ± 1.3 µM in data set [10]; at least 118 µM in data set [11]; 1.5 ± 0.01 µM in data set [12]; over 45 µM in [14]. Also, the IC50 is 19.5 ± 2.3 µM in [15]; 13.4 ± 0.06 µM in [16]; 7.9 ± 0.9 µM in data set [17]; over 59 µM in [19]; 57.2 ± 8.7 µM in data set [22]. For the same molecule, the CC50 is about 150 µM in [18] (MT-2 cells, XTT, four days, listed as 1, read-out: MT-2 Cells CC50); 280 µM in [18] (setting [25]); over 60 µM in data set [21] (setting [27]). Besides, in data set [21] (setting [26]), the “% toxicity at that dose … TZM-bl cells” value is on record as 10%.
